From ChEMBL document CHEMBL5154816, “Structure-Based Discovery and Optimization of Furo[3,2-c]pyridin-4(5H)-one Derivatives as Potent and Second Bromodomain (BD2)-Selective Bromo and Extra Terminal Domain (BET) Inhibitors” (J Med Chem, 2022)

These compounds were tested against T1, Bromodomain-containing protein 4 (Homo sapiens, UniProt O60885) (assay: Inhibition of C-terminal His6-tagged BRD4 BD2 (unknown origin) using H-YSGRGK(Ac)GGK(Ac)GLGK(Ac)-GGAK(Ac)RHRK-Biotin-OH as substrate incubated for 1 hrs by HTRF assay).

SMILES	IC50 [nM]
CCS(=O)(=O)Nc1ccc(Oc2ccc(F)cc2F)c(-c2cn(C)c(=O)c3cc(-c4cnc[nH]4)oc23)c1	0.51
CCS(=O)(=O)Nc1ccc(Oc2ccc(F)cc2F)c(-c2cn(C)c(=O)c3cc(-c4ccc(CCCO)cc4)oc23)c1	0.41
Cc1cc(-c2cc3c(=O)n(C)cc(-c4cc(C(C)(C)O)ccc4Oc4c(C)cc(F)cc4C)c3o2)cc(C)c1OCCCO	1.4
Cc1cc(-c2cc3c(=O)n(C)cc(-c4cc(CS(=O)(=O)C(C)(C)C)ccc4Oc4ccc(F)cc4F)c3o2)cc(C)c1OCCO	1.4
Cc1cc(-c2cc3c(=O)n(C)cc(-c4cc(NS(C)(=O)=O)ccc4Oc4ccc(F)cc4F)c3o2)cc(C)c1OCCO	0.76
CCS(=O)(=O)Nc1ccc(Oc2c(C)cc(F)cc2C)c(-c2cn(C)c(=O)c3cc(-c4cc(C)c(OCCO)c(C)c4)oc23)c1	0.8
Cc1cc(-c2cc3c(=O)n(C)cc(-c4cc(CS(=O)(=O)C(C)C)ccc4Oc4ccc(F)cc4F)c3o2)cc(C)c1OCCO	0.62
CCc1ncc(-c2cc3c(=O)n(C)cc(-c4cc(C(C)(C)O)ccc4Oc4c(C)cc(F)cc4C)c3o2)[nH]1	0.6
CCS(=O)(=O)Cc1ccc(Oc2ccc(F)cc2F)c(-c2cn(C)c(=O)c3cc(-c4cc(C)c(OCCO)c(C)c4)oc23)c1	0.55
Cc1cc(F)cc(C)c1Oc1ccc(C(C)(C)O)cc1-c1cn(C)c(=O)c2cc(-c3cnc(C4CCOCC4)[nH]3)oc12	0.46
CCS(=O)(=O)Nc1ccc(Oc2ccc(F)cc2F)c(-c2cn(C)c(=O)c3cc(-c4cnc(C)[nH]4)oc23)c1	0.76
CCS(=O)(=O)Nc1ccc(Oc2ccc(F)cc2F)c(-c2cn(C)c(=O)cc2OCc2ccccc2)c1	0.92
Cc1cc(-c2cc3c(=O)n(C)cc(-c4cc(C(C)(C)O)ccc4Oc4ccc(F)cc4F)c3o2)cc(C)c1OCCO	0.45
Cc1cc(-c2cc3c(=O)n(C)cc(-c4cc(NC(=O)C5CC5)ccc4Oc4ccc(F)cc4F)c3o2)cc(C)c1OCCO	3.2
CCS(=O)(=O)Nc1ccc(Oc2ccc(F)cc2F)c(-c2cn(C)c(=O)c3cc(-c4cnc(C5CCC5)[nH]4)oc23)c1	0.94
CCS(=O)(=O)Nc1ccc(Oc2c(OC)cccc2OC)c(-c2cn(C)c(=O)c3cc(-c4cc(C)c(OCCO)c(C)c4)oc23)c1	2
CCc1cccc(CC)c1Oc1ccc(NS(=O)(=O)CC)cc1-c1cn(C)c(=O)c2cc(-c3cc(C)c(OCCO)c(C)c3)oc12	9.7
CCC(=O)Nc1ccc(Oc2ccc(F)cc2F)c(-c2cn(C)c(=O)c3cc(-c4cc(C)c(OCCO)c(C)c4)oc23)c1	0.72
CCc1cccc(C)c1Oc1ccc(NS(=O)(=O)CC)cc1-c1cn(C)c(=O)c2cc(-c3cc(C)c(OCCO)c(C)c3)oc12	1.4
Cc1cc(-c2cc3c(=O)n(C)cc(-c4cc(NS(=O)(=O)C5CC5)ccc4Oc4ccc(F)cc4F)c3o2)cc(C)c1OCCO	1

These compounds were tested against T1, Bromodomain-containing protein 4 (assay: Inhibition of C-terminal His6-tagged BRD4 BD1 (unknown origin) using H-YSGRGK(Ac)GGK(Ac)GLGK(Ac)-GGAK(Ac)RHRK-Biotin-OH as substrate incubated for 1 hrs by HTRF assay).

SMILES	IC50 [nM]
CCS(=O)(=O)Nc1ccc(Oc2ccc(F)cc2F)c(-c2cn(C)c(=O)c3cc(-c4cnc[nH]4)oc23)c1	1.2
CCS(=O)(=O)Nc1ccc(Oc2ccc(F)cc2F)c(-c2cn(C)c(=O)c3cc(-c4ccc(CCCO)cc4)oc23)c1	0.75
Cc1cc(-c2cc3c(=O)n(C)cc(-c4cc(C(C)(C)O)ccc4Oc4c(C)cc(F)cc4C)c3o2)cc(C)c1OCCCO	63
Cc1cc(-c2cc3c(=O)n(C)cc(-c4cc(CS(=O)(=O)C(C)(C)C)ccc4Oc4ccc(F)cc4F)c3o2)cc(C)c1OCCO	3.3
Cc1cc(-c2cc3c(=O)n(C)cc(-c4cc(NS(C)(=O)=O)ccc4Oc4ccc(F)cc4F)c3o2)cc(C)c1OCCO	0.39
CCS(=O)(=O)Nc1ccc(Oc2c(C)cc(F)cc2C)c(-c2cn(C)c(=O)c3cc(-c4cc(C)c(OCCO)c(C)c4)oc23)c1	6.5
Cc1cc(-c2cc3c(=O)n(C)cc(-c4cc(CS(=O)(=O)C(C)C)ccc4Oc4ccc(F)cc4F)c3o2)cc(C)c1OCCO	0.57
CCc1ncc(-c2cc3c(=O)n(C)cc(-c4cc(C(C)(C)O)ccc4Oc4c(C)cc(F)cc4C)c3o2)[nH]1	121
CCS(=O)(=O)Cc1ccc(Oc2ccc(F)cc2F)c(-c2cn(C)c(=O)c3cc(-c4cc(C)c(OCCO)c(C)c4)oc23)c1	0.33
Cc1cc(F)cc(C)c1Oc1ccc(C(C)(C)O)cc1-c1cn(C)c(=O)c2cc(-c3cnc(C4CCOCC4)[nH]3)oc12	60
CCS(=O)(=O)Nc1ccc(Oc2ccc(F)cc2F)c(-c2cn(C)c(=O)c3cc(-c4cnc(C)[nH]4)oc23)c1	0.53
Cc1cc(-c2cc3c(=O)n(C)cc(-c4cc(C(C)(C)O)ccc4Oc4ccc(F)cc4F)c3o2)cc(C)c1OCCO	1.57
Cc1cc(-c2cc3c(=O)n(C)cc(-c4cc(NC(=O)C5CC5)ccc4Oc4ccc(F)cc4F)c3o2)cc(C)c1OCCO	6.8
CCS(=O)(=O)Nc1ccc(Oc2ccc(F)cc2F)c(-c2cn(C)c(=O)c3cc(-c4cnc(C5CCC5)[nH]4)oc23)c1	2
CCS(=O)(=O)Nc1ccc(Oc2c(OC)cccc2OC)c(-c2cn(C)c(=O)c3cc(-c4cc(C)c(OCCO)c(C)c4)oc23)c1	9.8
CCc1cccc(CC)c1Oc1ccc(NS(=O)(=O)CC)cc1-c1cn(C)c(=O)c2cc(-c3cc(C)c(OCCO)c(C)c3)oc12	61
CCC(=O)Nc1ccc(Oc2ccc(F)cc2F)c(-c2cn(C)c(=O)c3cc(-c4cc(C)c(OCCO)c(C)c4)oc23)c1	2.3
CCc1cccc(C)c1Oc1ccc(NS(=O)(=O)CC)cc1-c1cn(C)c(=O)c2cc(-c3cc(C)c(OCCO)c(C)c3)oc12	10
Cc1cc(-c2cc3c(=O)n(C)cc(-c4cc(NS(=O)(=O)C5CC5)ccc4Oc4ccc(F)cc4F)c3o2)cc(C)c1OCCO	1

Species on record: Homo sapiens
Assay: Selectivity index, ratio of IC50 for BRD4 BD1 (unknown origin) to IC50 of BRD4 BD2 (unknown origin)

SMILES	Ratio IC50
CCS(=O)(=O)Nc1ccc(Oc2ccc(F)cc2F)c(-c2cn(C)c(=O)c3cc(-c4cnc[nH]4)oc23)c1	2.35
CCS(=O)(=O)Nc1ccc(Oc2ccc(F)cc2F)c(-c2cn(C)c(=O)c3cc(-c4ccc(CCCO)cc4)oc23)c1	1.83
Cc1cc(-c2cc3c(=O)n(C)cc(-c4cc(C(C)(C)O)ccc4Oc4c(C)cc(F)cc4C)c3o2)cc(C)c1OCCCO	45
Cc1cc(-c2cc3c(=O)n(C)cc(-c4cc(CS(=O)(=O)C(C)(C)C)ccc4Oc4ccc(F)cc4F)c3o2)cc(C)c1OCCO	2.36
Cc1cc(-c2cc3c(=O)n(C)cc(-c4cc(NS(C)(=O)=O)ccc4Oc4ccc(F)cc4F)c3o2)cc(C)c1OCCO	0.51
CCS(=O)(=O)Nc1ccc(Oc2c(C)cc(F)cc2C)c(-c2cn(C)c(=O)c3cc(-c4cc(C)c(OCCO)c(C)c4)oc23)c1	8.12
Cc1cc(-c2cc3c(=O)n(C)cc(-c4cc(CS(=O)(=O)C(C)C)ccc4Oc4ccc(F)cc4F)c3o2)cc(C)c1OCCO	0.92
CCc1ncc(-c2cc3c(=O)n(C)cc(-c4cc(C(C)(C)O)ccc4Oc4c(C)cc(F)cc4C)c3o2)[nH]1	202
CCS(=O)(=O)Cc1ccc(Oc2ccc(F)cc2F)c(-c2cn(C)c(=O)c3cc(-c4cc(C)c(OCCO)c(C)c4)oc23)c1	0.6
Cc1cc(F)cc(C)c1Oc1ccc(C(C)(C)O)cc1-c1cn(C)c(=O)c2cc(-c3cnc(C4CCOCC4)[nH]3)oc12	130
CCS(=O)(=O)Nc1ccc(Oc2ccc(F)cc2F)c(-c2cn(C)c(=O)c3cc(-c4cnc(C)[nH]4)oc23)c1	0.7
Cc1cc(-c2cc3c(=O)n(C)cc(-c4cc(C(C)(C)O)ccc4Oc4ccc(F)cc4F)c3o2)cc(C)c1OCCO	3.5
Cc1cc(-c2cc3c(=O)n(C)cc(-c4cc(NC(=O)C5CC5)ccc4Oc4ccc(F)cc4F)c3o2)cc(C)c1OCCO	2.12
CCS(=O)(=O)Nc1ccc(Oc2ccc(F)cc2F)c(-c2cn(C)c(=O)c3cc(-c4cnc(C5CCC5)[nH]4)oc23)c1	2.13
CCS(=O)(=O)Nc1ccc(Oc2c(OC)cccc2OC)c(-c2cn(C)c(=O)c3cc(-c4cc(C)c(OCCO)c(C)c4)oc23)c1	4.9
CCc1cccc(CC)c1Oc1ccc(NS(=O)(=O)CC)cc1-c1cn(C)c(=O)c2cc(-c3cc(C)c(OCCO)c(C)c3)oc12	6.29
CCC(=O)Nc1ccc(Oc2ccc(F)cc2F)c(-c2cn(C)c(=O)c3cc(-c4cc(C)c(OCCO)c(C)c4)oc23)c1	3.19
CCc1cccc(C)c1Oc1ccc(NS(=O)(=O)CC)cc1-c1cn(C)c(=O)c2cc(-c3cc(C)c(OCCO)c(C)c3)oc12	7.14
Cc1cc(-c2cc3c(=O)n(C)cc(-c4cc(NS(=O)(=O)C5CC5)ccc4Oc4ccc(F)cc4F)c3o2)cc(C)c1OCCO	1
